Experimental data as given in the supplement of paper PMC10307832.

Tests used:
Experiment in all cases: relative viability (nuclei count vs DMSO), 5 days (fraction); higher = more cells survive
Wnt-C59 + OSI-027 = compound: CC1=NC=CC(=C1)C2=CC=C(C=C2)CC(=O)NC3=CC=C(C=C3)C4=CN=CC=C4 [Wnt-C59] + COc1cccc2cc(-c3nc([C@H]4CC[C@H](C(=O)O)CC4)n4ncnc(N)c34)[nH]c12 [OSI-027] (partner 0.5 µM)
Method in brief: (§1)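 The day after seeding in 1536-well plates, lung cancer cell lines were treated by pin tool with a single drug, or with a fixed anchor-drug dose together with five library-drug doses (not always all listed) in √10 steps. After 5 days, a combined fix-and-stain solution (final 0.05% Triton X-100, 1% formaldehyde, 1 ug/ml Hoechst) was added. Nuclei counted on 4× images gave relative viability as treated counts over vehicle counts, reported as the median of duplicate plates.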

Wnt-C59 + Olaparib = compound: CC1=NC=CC(=C1)C2=CC=C(C=C2)CC(=O)NC3=CC=C(C=C3)C4=CN=CC=C4 [Wnt-C59] + O=C(c1cc(Cc2n[nH]c(=O)c3ccccc23)ccc1F)N1CCN(C(=O)C2CC2)CC1 [Olaparib] (partner 8 µM)
Method in brief: as §1

Lapatinib + Dasatinib = compound: CS(=O)(=O)CCNCc1ccc(-c2ccc3ncnc(Nc4ccc(OCc5cccc(F)c5)c(Cl)c4)c3c2)o1 [Lapatinib] + Cc1nc(Nc2ncc(C(=O)Nc3c(C)cccc3Cl)s2)cc(N2CCN(CCO)CC2)n1 [Dasatinib] (partner 0.075 µM)
Method in brief: as §1

Lapatinib + Olaparib = compound: CS(=O)(=O)CCNCc1ccc(-c2ccc3ncnc(Nc4ccc(OCc5cccc(F)c5)c(Cl)c4)c3c2)o1 [Lapatinib] + O=C(c1cc(Cc2n[nH]c(=O)c3ccccc23)ccc1F)N1CCN(C(=O)C2CC2)CC1 [Olaparib] (partner 8 µM)
Method in brief: as §1

Row | Cell Line | relative viability (Wnt-C59 + OSI-027; first compound 0.001 µM) | relative viability (Wnt-C59 + OSI-027; first compound 0.01 µM) | relative viability (Wnt-C59 + OSI-027; first compound 0.03162 µM) | relative viability (Wnt-C59 + OSI-027; first compound 0.1 µM) | relative viability (Wnt-C59 + Olaparib; first compound 0.001 µM) | relative viability (Wnt-C59 + Olaparib; first compound 0.01 µM) | relative viability (Wnt-C59 + Olaparib; first compound 0.03162 µM) | relative viability (Wnt-C59 + Olaparib; first compound 0.1 µM) | relative viability (Lapatinib + Dasatinib; first compound 0.02 µM) | relative viability (Lapatinib + Dasatinib; first compound 0.06325 µM) | relative viability (Lapatinib + Dasatinib; first compound 0.2 µM) | relative viability (Lapatinib + Dasatinib; first compound 0.6325 µM) | relative viability (Lapatinib + Dasatinib; first compound 2 µM) | relative viability (Lapatinib + Olaparib; first compound 0.02 µM) | relative viability (Lapatinib + Olaparib; first compound 0.06325 µM) | relative viability (Lapatinib + Olaparib; first compound 0.2 µM) | relative viability (Lapatinib + Olaparib; first compound 0.6325 µM) | relative viability (Lapatinib + Olaparib; first compound 2 µM)
1 | NCI-H322M | 0.53 | 0.498 | 0.442 | 0.399 | 0.704 | 0.804 | 0.828 | 0.765 | 0.287 | 0.238 | 0.246 | 0.226 | 0.225 | 0.756 | 0.711 | 0.836 | 0.818 | 0.763
2 | NCI-H358 | 0.838 | 0.769 | 0.908 | 0.767 | 0.623 | 0.609 | 0.576 | 0.801 | 0.138 | 0.0919 | 0.127 | 0.0982 | 0.14 | 0.535 | 0.476 | 0.385 | 0.377 | 0.205
3 | NCI-H441 | 0.754 | 0.616 | 0.718 | 0.568 | 0.569 | 0.632 | 0.633 | 0.447 | – | 0.263 | 0.562 | 0.557 | 0.592 | 0.689 | – | 0.48 | 0.486 | 0.559
4 | NCI-H460 | 0.663 | 0.739 | 0.88 | 0.624 | 0.462 | 0.483 | 0.474 | 0.459 | 0.496 | 0.345 | 0.372 | 0.624 | 0.452 | – | 0.406 | 0.421 | 0.41 | 0.262
5 | NCI-H520 | 0.256 | 0.339 | 0.3 | 0.252 | 0.299 | 0.313 | 0.381 | 0.357 | 0.235 | 0.161 | 0.265 | 0.178 | 0.187 | 0.349 | 0.278 | 0.363 | 0.326 | 0.366
6 | NCI-H522 | 0.683 | 0.654 | 0.742 | 0.784 | 0.694 | 0.74 | 0.565 | 0.581 | – | 0.907 | 0.901 | 0.67 | 0.787 | – | 0.467 | 0.575 | 0.572 | 0.518
7 | NCI-H596 | 0.733 | 0.499 | 0.952 | 0.719 | 0.7 | 0.664 | 0.742 | 0.745 | – | 0.521 | 0.621 | 0.573 | 0.486 | – | 0.578 | 0.713 | 0.679 | 0.567
8 | NCI-H647 | 0.644 | 0.763 | 0.779 | 0.676 | 0.579 | 0.539 | 0.762 | 0.513 | 0.158 | 0.155 | 0.167 | 0.197 | 0.201 | 0.536 | 0.412 | 0.506 | 0.523 | 0.489
9 | NCI-H650 | 0.581 | 0.661 | 0.485 | 0.532 | 0.415 | 0.354 | 0.418 | 0.454 | – | 0.389 | 0.404 | 0.458 | 0.439 | – | 0.355 | 0.372 | 0.397 | 0.337
10 | NCI-H661 | 0.719 | 0.699 | 0.803 | 0.758 | 0.739 | 0.73 | 0.797 | 0.698 | 0.759 | 0.572 | 0.504 | 0.523 | 0.368 | 0.663 | 0.72 | 0.708 | 0.631 | 0.545
11 | NCI-H727 | 0.759 | 0.581 | 0.641 | 0.541 | 0.691 | 0.697 | 0.823 | 0.677 | – | – | 0.317 | 0.338 | 0.359 | 0.666 | – | 0.88 | 0.668 | 0.645
12 | NCI-H838 | 0.435 | 0.385 | 0.331 | 0.411 | 0.765 | 0.806 | 0.807 | 0.739 | 0.263 | – | 0.304 | 0.276 | 0.247 | 0.773 | 0.715 | 0.771 | 0.746 | 0.575
13 | NCI-H1355 | 0.446 | 0.302 | 0.366 | 0.417 | 0.726 | 0.756 | 0.717 | 0.716 | – | 0.465 | 0.705 | 0.694 | 0.319 | 0.719 | 0.594 | 0.699 | 0.688 | 0.439
14 | NCI-H1395 | 0.61 | 0.661 | 0.717 | 0.727 | 0.497 | 0.444 | 0.411 | 0.424 | 0.43 | 0.39 | 0.375 | 0.439 | 0.425 | – | 0.455 | 0.459 | 0.522 | 0.415
15 | NCI-H1437 | 0.859 | 0.927 | 0.859 | 0.911 | 0.626 | 0.629 | 0.62 | 0.605 | 0.28 | 0.245 | 0.382 | 0.304 | 0.345 | 0.62 | 0.626 | 0.62 | 0.609 | 0.507
16 | NCI-H1650 | 0.756 | 0.569 | 0.645 | 0.647 | 0.78 | 0.817 | 0.802 | 0.684 | 0.263 | 0.253 | 0.264 | 0.38 | 0.245 | 0.73 | 0.847 | 0.767 | 0.802 | 0.621
17 | NCI-H1651 | 0.767 | 0.646 | 0.696 | 0.709 | 0.202 | 0.164 | 0.203 | 0.184 | 0.443 | 0.284 | 0.386 | 0.476 | 0.406 | 0.193 | 0.183 | 0.181 | 0.197 | 0.178
18 | NCI-H1666 | 0.825 | 0.849 | 0.873 | 0.876 | 0.732 | 0.758 | 0.711 | 0.817 | 0.764 | 0.612 | 0.748 | 0.661 | 0.508 | 0.761 | 0.776 | 0.743 | 0.703 | 0.719
